US8648211B2, “Surface-modifying silicone elastomers” (priority 2009, dated 2014)
Values belong to the substance of their own block, whether it stands above or below them.

How the values were obtained:
Format in all cases: physicochemical
[1] = Wetting of polystyrene by aqueous surfactant solutions (drop shape analyzer); conditions: for surface area of drop versus buffer control on polystyrene: 0.1 wt % (0.2 wt %, 0.5 wt %) in phosphate buffer pH=7
Procedure: (§1) ^1H NMR and ^13C NMR spectra were obtained on Bruker AC-200 (200-MHz) spectrometer. The molecular weight and mass spectra were determined on a Micromass Global Q-TOF Ultima (MALDI/CapLC-ESI Quadrupole Time of Flight) Mass Spectrometer. ATR-FTIR spectra were obtained on Bio-Rad FTS-40 (Fourier transform IR) spectrometer with an ATR accessory, on which a 45° rectangle ZnSe crystal was used. Surface water contact angle and surface tension were recorded using a Krüss V1.50 drop shape analyzer.
(§2) The ability of solutions of APS and related compounds to wet substrates was established using a drop shape analyzer. The contact angles and total spreading were established immediately after placing an aqueous drop volume ˜0.02 ml onto the surface of polystyrene (a new Petri dish) or a cleaned glass slide.
(§3) The ability of APS to disperse an aqueous phosphate buffer solution (pH=7) was determined on both hydrophobic (polystyrene) and hydrophilic (glass) surfaces. […] By contrast, when 1.5 wt % APS was included in the buffer, the maximum wetting diameter area on polystyrene was close to 6.16 cm^2, close to 200 times the area of the original buffer solution. Thus, APS has characteristics of typical superwetters.

[2] = Stability of aqueous surfactant solutions (decomposition in water)
Text: The durability and environmental stability of modified surfaces are factors to consider for their use in real applications. While silicones are normally very stable to degradation, provided that the conditions remain near neutrality, branched trisiloxanes are notoriously unstable to hydrolysis.^27 Superwetters are usually added to the agents to be dispersed and then used immediately in pH 7 buffers. […] However, it was possible that tethering the superwetter to a surface would change the hydrolytic susceptibility.

[3] = Water wetting (contact angle, spreading) on surface-modified PDMS
Procedure: as §1
(§4) The ability of water to wet out a variety of surface modified silicones was also established using the drop shape analyzer. […] Prior to each test, the coupons were thoroughly washed by DI water (FIG. 8).
The magnitude of spreading of APS in water was examined, and water on APS tethered to silicone, but not yet considered is the rate of spreading: rapid rates of spreading are also emblematic of superwetters. The water spreading rate on APS-modified PDMS was calculated according to a literature method^26 where: spreading rate=dD/dt (1) and, spreading area=dΔS/dt, (2) wherein D is the diameter of water droplet, S is the surface area covered by water and t is the spreading time. […] That is, replacing a terminal alcohol, acetate, etc., on the PEG block with an allyl group leads only to subtle changes in wetting properties. The situation is quite different when the superwetter is tethered.

[4] = Hydrolytic stability of APS-modified PDMS soaked in pH 4 and pH 10 solutions
Procedure: as §4
The hydrolytic stability of APS-modified PDMS elastomers was tested by soaking for extended periods of time in aqueous pH=4 and pH=10 solutions. […] However, while spreading is impeded after the surface is exposed to such conditions, the water contact angle can still decrease to 20° over 2-3 minutes. The tethered APS is thus more resistant to hydrolytic degradation than APS in solution. Further degradation while soaking the tethered APS in an aqueous solution occurred in the second week, after which no superspreading effect was observed: contact angles decreased only to about 60° over 1-2 minutes.

[5] = Shelf-life of APS-modified PDMS stored in air, tested monthly over 5 months
Text: as §4
The shelf-life of the tethered APS was also established by testing spreading behavior monthly over a period of 5 months: samples of APS-modified surfaces were stored without any special protection on the laboratory bench. Subtle changes were observed over time. While the final contact angle (approaching zero) of water droplets was still achieved after 5 months, spreading rates changed appreciably. Rather than two distinct spreading rates, the droplet would spread to a specific radius, stop for several (typically up to 10) seconds and then spread to a new larger radius. This start-stop-start-stop process was repeated up to about 8 times at which point the approximately 0° contact angle was achieved.

[6] = Wetting of glass by aqueous surfactant solutions (drop shape analyzer); conditions: 0.1 wt % (0.2 wt %, 0.5 wt %) in phosphate buffer pH=7
Procedure: as §1, §2, §3

[7] = 0.02 ml water on APS-modified silicone elastomer
[8] = PDMS 1 wt % DC1107 grafted with 14.7 wt % APS, 0.02 ml water

area of one drop after spreading ([1]; 1 wt % aqueous solution, from 0.03 cm^2, in 5 seconds, surface not stated, data not shown): 4.91 cm^2 | maximum wetting diameter area on polystyrene ([1]; 1.5 wt % in aqueous phosphate buffer pH=7, 5 μl buffer control 0.031 cm^2): ~6.16 cm^2 | wetting area relative to the area of the original buffer solution ([1]; 1.5 wt % in phosphate buffer pH=7, polystyrene): ~200 times | spreading rate of water droplet, first 3 seconds ([3]; 0.02 ml water on APS-modified PDMS (1 wt % DC1107, 14.7 wt % APS)): ~1 mm s^−1 | final area covered by water relative to original droplet size [3, 7]: about 15 times | water contact angle within about 1 minute [3, 7]: below 10 ° | contact angle at the edge of the spread droplet when the drop ceases to migrate ([3]; APS-modified PDMS): ~0 ° | increase of water spreading area during first 3 seconds [3, 8]: 8 times | spreading rate of water droplet, subsequent 30 seconds [3, 8]: approximately 0.1 mm s^−1 | water contact angle on APS-grafted silicone surfaces within one minute ([3]; distilled water, in some cases, depends on surface coverage): nearly zero | Contact Angle (°) ([3]; water droplets 0.02 ml on modified PDMS prepared with 1% DC1107): 0 ° | Wetting Diameter (mm) ([3]; water droplets 0.02 ml, initial radius ~1.0 mm, final diameter after 1 min, modified PDMS, 1% DC1107): 8 mm | water contact angle after soaking, second week ([4]; APS-modified PDMS soaked in aqueous solution, reached over 1-2 minutes, no superspreading): about 60 ° | water contact angle after soaking, first week ([4]; APS-modified PDMS soaked in pH=4 and pH=10 solutions, reached over 2-3 minutes): 20 ° | final water contact angle after 5 months ([5]; APS-modified surface stored on the laboratory bench): approximately 0 ° | time surface remained superhydrophilic ([5]; APS-modified surface, storage in air): at least 5 months
Substance: Allyl PEO Siloxane [APS]
spreading of aqueous solutions compared with commercial superwetter L77 ([1]; degree and velocity of spreading, surface not stated): approximately the same degree and at a similar velocity to the commercial superwetter L77 | stability of aqueous solution [2]: decomposed in water over a few days to a week

surface area of drop versus buffer control on polystyrene [1]: only marginally larger surface areas | surface area of drop versus buffer control on glass [6]: only marginally larger surface areas | superwetting properties of compound or compound-modified surfaces ([3]; in aqueous solution and grafted to PDMS): do not have superwetting properties | lowest contact angle of grafted PDMS ([3]; pure DAP grafted to PDMS at 10, 20, 50% in THF): 80 °
Substance: Diallyl-Terminated PEO [DAP]

surface area of drop versus buffer control on polystyrene [1]: only marginally larger surface areas | surface area of drop versus buffer control on glass [6]: only marginally larger surface areas
Substance: bis-heptamethyltrisiloxanyl-PEG [SiPS]
